Source: ChEMBL document CHEMBL1152400, “Tetrahydrocarbazole amides with potent activity against human papillomaviruses” (Bioorg Med Chem Lett, 2009)

Tests used:
Cytochrome P450 2D6 = Cytochrome P450 2D6 (Homo sapiens, UniProt P10635); assay: Inhibition of CYP2D6; type: ADME
[1] = Cytotoxicity against HFF cells; type: cell-based; settings: human
[2] = test system: Human papillomavirus type 16; assay: Antiviral activity against Human papillomavirus 16 infected in human W12-20850 cells by hybrid capture method; type: functional, organism-based; settings: Human papillomavirus 16, W12-20850
[3] = target: Voltage-gated inwardly rectifying potassium channel KCNH2 (Homo sapiens, UniProt Q12809)
[4] = Half life in monkey at 5 mg/kg; type: ADME, organism-based, Macaca mulatta; parameters: dose 5 mg/kg; settings: rhesus monkey, in vivo
[5] = Oral bioavailability in rat at 10 mg/kg; type: ADME, organism-based; settings: in vivo
[6] = Volume of distribution at steady state in monkey at 2 mg/kg, iv; type: ADME, organism-based, Macaca mulatta; parameters: dose 2 mg/kg, route intravenous; settings: rhesus monkey, in vivo, read-out: Vdss
[7] = Clearance in monkey at 2 mg/kg, iv; type: ADME, organism-based, Macaca mulatta; parameters: dose 2 mg/kg, route intravenous; settings: rhesus monkey, in vivo
[8] = Half life in rat at 10 mg/kg; type: ADME, organism-based; parameters: dose 10 mg/kg; settings: in vivo
[9] = Volume of distribution at steady state in rat at 2 mg/kg, iv; type: ADME, organism-based; parameters: dose 2 mg/kg, route intravenous; settings: in vivo, read-out: Vdss
[10] = Half life in dog at 5 mg/kg; type: ADME, organism-based, Canis lupus familiaris; parameters: dose 5 mg/kg; settings: in vivo
[11] = Oral bioavailability in monkey at 5 mg/kg; type: ADME, organism-based, Macaca mulatta; settings: rhesus monkey, in vivo
[12] = Oral bioavailability in dog at 5 mg/kg; type: ADME, organism-based, Canis lupus familiaris; settings: in vivo
[13] = Clearance in rat at 2 mg/kg, iv; type: ADME, organism-based; parameters: dose 2 mg/kg, route intravenous; settings: in vivo
[14] = Volume of distribution at steady state in dog at 2 mg/kg, iv; type: ADME, organism-based, Canis lupus familiaris; parameters: dose 2 mg/kg, route intravenous; settings: in vivo, read-out: Vdss
[15] = Clearance in dog at 2 mg/kg, iv; type: ADME, organism-based, Canis lupus familiaris; parameters: dose 2 mg/kg, route intravenous; settings: in vivo
[16] = Bioavailability in rat; type: ADME, organism-based; settings: in vivo

Cytochrome P450 2D6, sequence (P10635 whole entry): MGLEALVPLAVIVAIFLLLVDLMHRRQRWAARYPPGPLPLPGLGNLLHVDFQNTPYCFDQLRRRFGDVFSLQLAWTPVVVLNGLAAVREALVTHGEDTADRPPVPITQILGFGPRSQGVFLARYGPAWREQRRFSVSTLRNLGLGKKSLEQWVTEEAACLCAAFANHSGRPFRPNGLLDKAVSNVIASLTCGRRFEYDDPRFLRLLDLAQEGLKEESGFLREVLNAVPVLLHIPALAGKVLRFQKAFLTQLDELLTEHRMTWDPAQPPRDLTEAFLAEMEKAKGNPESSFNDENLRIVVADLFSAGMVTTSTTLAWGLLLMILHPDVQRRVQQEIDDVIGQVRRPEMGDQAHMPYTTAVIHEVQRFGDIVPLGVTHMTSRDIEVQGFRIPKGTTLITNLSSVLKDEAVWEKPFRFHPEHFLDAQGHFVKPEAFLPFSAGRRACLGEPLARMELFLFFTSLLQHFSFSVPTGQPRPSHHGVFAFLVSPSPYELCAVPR
Voltage-gated inwardly rectifying potassium channel KCNH2, sequence (Q12809 whole entry): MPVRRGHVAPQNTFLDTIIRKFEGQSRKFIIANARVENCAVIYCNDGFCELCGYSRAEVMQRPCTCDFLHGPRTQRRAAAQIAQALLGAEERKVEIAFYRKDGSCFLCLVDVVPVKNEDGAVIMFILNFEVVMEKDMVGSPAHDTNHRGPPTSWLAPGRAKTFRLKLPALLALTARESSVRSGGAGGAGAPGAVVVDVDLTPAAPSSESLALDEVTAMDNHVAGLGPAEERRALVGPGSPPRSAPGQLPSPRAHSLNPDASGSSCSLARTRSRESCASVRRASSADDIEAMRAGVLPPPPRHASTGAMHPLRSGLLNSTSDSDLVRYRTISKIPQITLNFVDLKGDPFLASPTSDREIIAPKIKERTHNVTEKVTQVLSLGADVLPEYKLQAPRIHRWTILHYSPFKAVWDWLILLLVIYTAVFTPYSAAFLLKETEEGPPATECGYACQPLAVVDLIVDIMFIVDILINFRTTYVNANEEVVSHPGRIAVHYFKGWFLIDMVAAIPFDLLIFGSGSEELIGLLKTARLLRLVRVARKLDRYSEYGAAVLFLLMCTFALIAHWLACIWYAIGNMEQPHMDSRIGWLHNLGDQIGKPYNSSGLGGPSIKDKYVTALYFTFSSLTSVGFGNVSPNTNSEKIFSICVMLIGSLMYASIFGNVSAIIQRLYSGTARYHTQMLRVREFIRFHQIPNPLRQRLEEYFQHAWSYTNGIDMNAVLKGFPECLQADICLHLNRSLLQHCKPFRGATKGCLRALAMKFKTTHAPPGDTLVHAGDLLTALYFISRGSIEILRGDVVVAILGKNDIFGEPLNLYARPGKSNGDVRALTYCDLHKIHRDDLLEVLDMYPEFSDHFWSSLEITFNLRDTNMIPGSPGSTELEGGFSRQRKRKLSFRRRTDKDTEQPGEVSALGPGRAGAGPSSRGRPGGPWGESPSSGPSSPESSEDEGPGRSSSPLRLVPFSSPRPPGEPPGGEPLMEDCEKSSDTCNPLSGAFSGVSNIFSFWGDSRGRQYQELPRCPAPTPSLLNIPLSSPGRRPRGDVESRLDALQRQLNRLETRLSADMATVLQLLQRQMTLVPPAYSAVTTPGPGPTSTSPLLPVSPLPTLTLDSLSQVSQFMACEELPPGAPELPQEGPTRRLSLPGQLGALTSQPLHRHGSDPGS

Question: For C[C@@H](N[C@@H]1CCCc2c1[nH]c1ccc(Br)cc21)c1ccccc1, which IC50 (Cytochrome P450 2D6) is on record?
Answer: 0.16 µM

Question: What does the source list for O=C(NC1CCCc2c1[nH]c1ccc(Br)cc21)c1ccccc1 (stereo not given)?
Answer: CC50 [1]: > 20 µM; IC50 [2]: 0.03 µM

Question: With O=C(NC1CCCc2c1[nH]c1ccc(Br)cc21)OCc1ccccc1 (stereo not given) as the compound, how does the CC50 [1] read?
Answer: > 20 µM

Question: What about the IC50 [2] of the same compound?
Answer: 0.045 µM

Question: For O=C(N[C@@H]1CCCc2c1[nH]c1ccc(Cl)cc21)c1ccccc1, which CC50 [1] is on record?
Answer: 26 µM

Question: And the IC50 [2]?
Answer: 0.02 µM

Question: What does the source list for O=C(N[C@@H]1CCCc2c1[nH]c1ccc(Cl)cc21)c1ccccc1F?
Answer: IC50 (Cytochrome P450 2D6): > 20 µM; IC50 [3]: > 20 µM; CC50 [1]: 24 µM; IC50 [2]: 0.008 µM

Question: Which CC50 [1] does the source give for O=C(N[C@H]1CCCc2c1[nH]c1ccc(Br)cc21)c1ccccc1 here?
Answer: 52 µM

Question: And the IC50 [2]?
Answer: 5.7 µM

Question: What does the source list for O=C(N[C@@H]1CCCc2c1[nH]c1ccc(Cl)cc21)c1ccccn1?
Answer: half-life [4]: 3.6 h; bioavailability [5]: 56%; Vd [6]: 0.13 L/kg; clearance [7]: 1.1 mL/min/kg; CC50 [1]: 16 µM; IC50 [2]: 0.005 µM; half-life [8]: 4.1 h; Vd [9]: 1.6 L/kg; half-life [10]: 9.5 h; bioavailability [11]: 56%; bioavailability [12]: 35%; clearance [13]: 13.1 mL/min/kg; Vd [14]: 1.7 L/kg; clearance [15]: 5 mL/min/kg

Question: Which CC50 [1] does the source give for Brc1ccc2[nH]c3c(c2c1)CCCC3Nc1ccccc1 (stereo not given) here?
Answer: 50.8 µM

Question: What about the IC50 [2] of the same compound?
Answer: 0.01 µM

Question: What about the bioavailability [16] of the same compound?
Answer: < 5%

Question: For O=C(NC1CCCc2c1[nH]c1ccc(Br)cc21)C1CCCCC1 (stereo not given), which CC50 [1] is on record?
Answer: 50 µM

Question: What about the IC50 [2] of the same compound?
Answer: 0.4 µM

Question: Which CC50 [1] does the source give for O=C(Cc1ccccc1)NC1CCCc2c1[nH]c1ccc(Br)cc21 (stereo not given) here?
Answer: > 50 µM

Question: What about the IC50 [2] of the same compound?
Answer: 0.58 µM

Question: Which results are given for CS(=O)(=O)NC1CCCc2c1[nH]c1ccc(Br)cc21 (stereo not given)?
Answer: CC50 [1]: > 50 µM; IC50 [2]: 2.26 µM

Question: For Cc1ccccc1C(=O)NC1CCCc2c1[nH]c1ccc(Br)cc21 (stereo not given), which CC50 [1] is on record?
Answer: 40 µM

Question: What about the IC50 [2] of the same compound?
Answer: 0.5 µM

Question: Which CC50 [1] does the source give for O=C(N[C@H]1CCCc2c1[nH]c1ccc(Cl)cc21)c1ccccc1 here?
Answer: 55 µM

Question: What about the IC50 [2] of the same compound?
Answer: 11.3 µM

Question: With O=C(N[C@@H]1CCCc2c1[nH]c1ccc(Br)cc21)c1ccccc1 as the compound, how does the CC50 [1] read?
Answer: 39 µM

Question: And the IC50 [2]?
Answer: 0.008 µM

Question: Which CC50 [1] does the source give for Brc1ccc2[nH]c3c(c2c1)CCCC3Nc1ccccn1 (stereo not given) here?
Answer: 20.7 µM

Question: And the IC50 [2]?
Answer: 0.04 µM

Question: Which results are given for O=C(/C=C/c1ccccc1)NC1CCCc2c1[nH]c1ccc(Br)cc21 (stereo not given)?
Answer: CC50 [1]: > 40 µM; IC50 [2]: 0.32 µM

Question: With Brc1ccc2[nH]c3c(c2c1)CCCC3Nc1ncccn1 (stereo not given) as the compound, how does the CC50 [1] read?
Answer: 89.5 µM

Question: What about the IC50 [2] of the same compound?
Answer: 0.09 µM

Question: With O=C(CCc1ccccc1)NC1CCCc2c1[nH]c1ccc(Br)cc21 (stereo not given) as the compound, how does the CC50 [1] read?
Answer: > 50 µM

Question: And the IC50 [2]?
Answer: 1.2 µM

Question: Which CC50 [1] does the source give for CC(=O)NC1CCCc2c1[nH]c1ccc(Br)cc21 (stereo not given) here?
Answer: > 50 µM

Question: And the IC50 [2]?
Answer: 12.9 µM

Question: Which results are given for O=C(N[C@H]1CCCc2c1[nH]c1ccc(Cl)cc21)c1ccccc1F?
Answer: CC50 [1]: 36 µM; IC50 [2]: 2.1 µM

Question: For Cc1ccc(S(=O)(=O)NC2CCCc3c2[nH]c2ccc(Br)cc32)cc1 (stereo not given), which CC50 [1] is on record?
Answer: > 20 µM

Question: What about the IC50 [2] of the same compound?
Answer: 0.024 µM

Question: Which CC50 [1] does the source give for O=C(N[C@H]1CCCc2c1[nH]c1ccc(Cl)cc21)c1ccccn1 here?
Answer: 61 µM

Question: What about the IC50 [2] of the same compound?
Answer: 9 µM

Question: Which CC50 [1] does the source give for Cc1cccc(C(=O)NC2CCCc3c2[nH]c2ccc(Br)cc32)c1 (racemic) here?
Answer: 41 µM

Question: And the IC50 [2]?
Answer: 0.024 µM

Question: What does the source list for COc1cccc(C(=O)NC2CCCc3c2[nH]c2ccc(Br)cc32)c1 (racemic)?
Answer: CC50 [1]: 26 µM; IC50 [2]: 0.021 µM

Question: With O=C(NC1CCCc2c1[nH]c1ccc(Br)cc21)c1ccccn1 (racemic) as the compound, how does the CC50 [1] read?
Answer: 72 µM

Question: And the IC50 [2]?
Answer: 0.005 µM

Question: With COc1ccc(C(=O)NC2CCCc3c2[nH]c2ccc(Br)cc32)cc1 (racemic) as the compound, how does the CC50 [1] read?
Answer: 88 µM

Question: What about the IC50 [2] of the same compound?
Answer: 0.017 µM

Question: For O=C(NC1CCCc2c1[nH]c1ccc(Br)cc21)c1cccnc1 (racemic), which CC50 [1] is on record?
Answer: 100 µM

Question: What about the IC50 [2] of the same compound?
Answer: 0.19 µM

Question: With Cc1ccc(C(=O)NC2CCCc3c2[nH]c2ccc(Br)cc32)cc1 (racemic) as the compound, how does the CC50 [1] read?
Answer: 87 µM

Question: And the IC50 [2]?
Answer: 0.01 µM

Question: Which CC50 [1] does the source give for O=C(NC1CCCc2c1[nH]c1ccc(Br)cc21)c1ccc(F)cc1 (racemic) here?
Answer: 47 µM

Question: And the IC50 [2]?
Answer: 0.044 µM

Question: What does the source list for O=C(NC1CCCc2c1[nH]c1ccc(Br)cc21)c1ccncc1 (racemic)?
Answer: CC50 [1]: 100 µM; IC50 [2]: 0.2 µM

Question: Which results are given for O=C(NC1CCCc2c1[nH]c1ccc(Br)cc21)c1cccc(F)c1 (racemic)?
Answer: CC50 [1]: 65 µM; IC50 [2]: 0.018 µM

Question: For COc1ccccc1C(=O)NC1CCCc2c1[nH]c1ccc(Br)cc21 (racemic), which CC50 [1] is on record?
Answer: 100 µM

Question: What about the IC50 [2] of the same compound?
Answer: 21 µM

Question: With O=C(NC1CCCc2c1[nH]c1ccc(Br)cc21)c1ccccc1F (racemic) as the compound, how does the CC50 [1] read?
Answer: 49 µM

Question: What about the IC50 [2] of the same compound?
Answer: 0.008 µM
